Experimental data published in patent publication US11661404B2, “Prodrug compounds activated by AKR1C3 and their use for treating hyperproliferative disorders” (priority 2018, dated 2023).
Where two headings read alike, the source gives them in different places.

Assays:
recombinant human AKR1C3 = biological target: T1, recombinant human AKR1C3 (Homo sapiens, UniProt P42330); assay: Kinetics assay: metabolism of prodrugs by recombinant human AKR1C3; assay type: biochemical; details: NADPH, pH 7.4, 37° C.
T1 construct: His6 (hexahistidine) (C); made in house; host or cells: E. coli BL21(DE3)
T1 sequence (P42330 1-323): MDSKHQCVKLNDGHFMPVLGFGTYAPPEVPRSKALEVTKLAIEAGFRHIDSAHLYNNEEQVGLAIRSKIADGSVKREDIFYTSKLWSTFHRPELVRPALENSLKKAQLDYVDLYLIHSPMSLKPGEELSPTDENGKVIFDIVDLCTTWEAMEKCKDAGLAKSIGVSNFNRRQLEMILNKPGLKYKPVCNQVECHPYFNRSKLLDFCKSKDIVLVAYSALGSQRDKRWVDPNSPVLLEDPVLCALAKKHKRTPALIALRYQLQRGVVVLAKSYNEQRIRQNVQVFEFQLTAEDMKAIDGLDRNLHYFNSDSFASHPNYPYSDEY
Protocol: E. coli BL21(DE3) cells expressing the pET22b-AKR1C3 construct with a C-terminal hexahistidine (His6) tag and constitutive promoter was generated. Colonies of these transformed E. coli cells were grown in LB agar medium containing 100 μg/mL of ampicillin. A single colony was picked the following day and grown in 400 mL batches of bacterial medium containing ampicillin (100 μg/mL) at 37° C., with continuous shaking at 200 rpm overnight. Bacterial cultures were pelleted by centrifugation (4000×g, 15 minutes) and resuspended in lysis buffer (10 mL/400 mL culture). The cells were disrupted by sonication (Sonicator 3000, Misonix) and centrifuged at 14,000 rpm for 30 minutes (at 4° C.). The cleared lysate was filtered in successive filters containing pore sizes of 1.20 μm, 0.8 μm and 0.2 μm and loaded onto a nickel-agarose affinity chromatography column on an ÄKTA Purifier system. The column was washed with 20 mL of the lysis buffer and the His6-tagged AKR1C3 protein was eluted with lysis buffer supplemented with 500 mM imidazole. The protein was further purified by a liquid chromatography gel filtration column (Superdex 200 HR16/60) using lysis buffer (supplemented with 5% v/v glycerol) and 1 mM DTT (pH 7.0) at a flow rate of 0.3 mL/min. Protein was monitored by absorbance at 280 nm, and purity of the fractions (1 mL) was assessed by SDS-PAGE. Active fractions containing the purified protein were pooled and concentrated by centrifugation (3,000×g, 4° C.) on a Vivaspin concentrator (MWCO 10,000 cutoff; GE Healthcare). The protein containing solution was supplemented with glycerol (to a final concentration of 15%, v/v) and NADP^+ was added to a final concentration of 2 mM.
Kinetic parameters of compounds of the invention were determined in a 96-well plate format. The 100 mM potassium phosphate buffer used in this assay was made with the following reagents to a pH of 7.4: • 0.5 M K2HPO4— 8.2 mL • 0.5 M KH2PO4— 1.8 mL • BSApowder—25 mg • Milli Q water—40 mL
For the assay, 2 μL of varying substrate concentrations were incubated with 94 μL of the potassium phosphate buffer and 2 μL of 5 mM NADPH for 5 minutes in the pre-warmed (37° C.) plate chamber of a Molecular Devices SpectraMax M2 plate reader. Purified AKR1C3 enzyme (2 μL) was added to a final concentration of […] in each well using an Eppendorf electronic multi-channel pipette. Absorbance measurements were recorded immediately upon addition of enzyme over a period of 5 minutes at a wavelength of 400 nm. Absorbance changes for each compound concentration were plotted against time to obtain the rate of absorbance change over the 5 minute period. The rate of absorbance change was then plotted against the compound concentration and non-linear regression analysis and Michaelis-Menten curve fitting performed on GraphPadPrism (version 5.00 for Windows, GraphPad Software, San Diego Calif. USA) in order to determine kinetic parameters of compounds.

[1] = system: wild-type H460 lung cancer cells; assay: Anti-proliferative IC50 assay, wild-type H460; assay type: cell-based, human; details: for IC50: Homo sapiens
Protocol: Four hundred cells were seeded in a volume of 100 μL in each well of a 96-well plate. The cells were left in a humidified incubator (37° C., 5% CO2) for 2 hours in order to enable attachment to the surface of the wells prior to compound addition. All compounds were prepared as stocks in DMSO and stored at −80° C. Frozen stocks of compounds were thawed immediately prior to addition to cells. Working solutions of each compound were made in α-MEM+5% FBS (v/v) at 3 times the required final concentration for the top well. The final concentration of DMSO in the α-MEM solution was ensured to not exceed 1% of the total volume. 50 μL of the working solution was added to the top wells (in duplicates) and gently mixed. The solubility of some compounds precluded the working solution in α-MEM to be 3 times the desired top well concentration. […] A 3-fold serial dilution was carried out along the plate starting from the top well. The first column of wells on the plate served as blanks (containing α-MEM+FBS) and the second column served as control wells (containing cells with no compound added). Following compound addition, the plates were incubated for 4 hours in a humidified incubator (37° C., 5% CO2).
Following the 4 hour compound exposure, the 96-well plates were washed three times by aspirating media with an Immuno Washer (Nunc) and each well replaced with 150 μL of α-MEM+5% (v/v) FBS+1% (v/v) P/S. The plates were left in a humidified incubator (37° C., 5% CO2) for 5 days to enable cell growth. The cells in 96-well plates were fixed 5 days after compound exposure by adding 50 μL of a 40% (w/v) trichloroacetic acid (TCA) solution so as to obtain a final TCA concentration of 10% in each well. The plates were left in the refrigerator (4° C.) for 1 hour and subsequently rinsed 3 times in tap water. Any excess water was left to drain and the cells were stained with 50 μL of 0.4% (w/v) sulforhodamine B (SRB). The plates with the SRB stain were left in the dark for 30 minutes. Excess stain was removed from the wells by rinsing the plates 4 times in water containing 1% (v/v) acetic acid. The stain was solubilised by adding 100 μL of 10 mM unbuffered Tris (pH 10.5) to each well and the plates were left in a shaker in a dark environment at room temperature for at least 1 hour. The absorbance values of the wells were determined by an ELx 808 Absorbance Microplate Reader (Bio-Tek Instruments, Winooski, Vt., USA), with the wavelength of the measurement filter set at 490 nm and a reference filter set at 450 nm. The absorbance of the reference filter was subtracted from the measurement filter to obtain a final absorbance of λ490-450 nm. The absorbance data was analysed and IC50 values determined by the KC4 microplate data analysis software (KC4™ V3.4, Bio-Tek).
Anti-proliferative IC50 assays were repeated as described above including the addition of 3 μM SN34037, a selective and potent small molecule inhibitor of AKR1C3.
Materials and methods used are as described for Example 9.

[2] = NCI-H460, read-out: H460-WT +AKR1C3 Inhibitor Anti-proliferative IC50
[3] = NCI-H460, read-out: H460-WT Anti-proliferative IC50

Structure (SMILES)	Km (recombinant human AKR1C3)	kcat (recombinant human AKR1C3)	IC50 [1, 2]	IC50 [1, 3]	more cytotoxic in H460 cells than SN34454 [1]	more cytotoxic in H460 cells than SN33540 [1]	more cytotoxic in H460 cells than SN34118 [1]
O=[N+]([O-])c1ccc(N(CCBr)CCBr)c(S(=O)(=O)N2CCN(CC(O)CO)CC2)c1 (stereo not shown) [Compound 566, 3-(4-((2-(bis(2-bromoethyl)amino)-5-nitrophenyl)sulfonyl)piperazin-1-yl)propane-1,2-diol]	32.2 µM	67.1 s⁻¹	4.03 µM	0.004 µM			
CN1CCN(S(=O)(=O)c2cc([N+](=O)[O-])ccc2N(CCBr)CCOS(C)(=O)=O)CC1 [Compound 602, 2-((2-bromoethyl)(2-((4-methylpiperazin-1-yl)sulfonyl)-4-nitrophenyl)amino)ethyl methanesulfonate]	33.1 µM		4.19 µM	0.004 µM	102 fold		
CS(=O)(=O)OCCN(CCBr)c1ccc([N+](=O)[O-])cc1S(=O)(=O)N1CCN(CC(O)CO)CC1 (stereo not shown) [Compound 605, 2-((2-bromoethyl)(2-((4-(2,3-dihydroxypropyl)piperazin-1-yl)sulfonyl)-4-nitrophenyl)amino)ethyl methanesulfonate]	17.1 µM		7.8 µM	0.025 µM			
CN1CCN(S(=O)(=O)c2cc([N+](=O)[O-])ccc2N(CCOS(C)(=O)=O)CCOS(C)(=O)=O)CC1 [Compound 641, ((2-((4-methylpiperazin-1-yl)sulfonyl)-4-nitrophenyl)azanediyl)bis(ethane-2,1-diyl) dimethanesulfonate]	21.5 µM		5.86 µM	0.003 µM	135 fold	179 fold	520 fold
CS(=O)(=O)OCCN(CCBr)c1c(C(=O)NCCO)cc([N+](=O)[O-])cc1[N+](=O)[O-] [PR-104A, 2-((2-bromoethyl)(2-((2-hydroxyethyl)-carbamoyl)-4,6-dinitrophenyl)amino)ethyl methanesulfonate, reference compound]	72.9 µM	18.7 s⁻¹	50 µM	2.7 µM			
CN1CCN(C(=O)c2cc([N+](=O)[O-])ccc2N(CCBr)CCBr)CC1 [SN34118, reference compound]	9 µM	18.7 s⁻¹	28.9 µM	1.56 µM			
CN1CCN(C(=O)c2cc([N+](=O)[O-])ccc2N(CCBr)CCOS(C)(=O)=O)CC1 [SN34454, reference compound]		5.2 s⁻¹	46 µM	0.406 µM			
